Laboratory results: patent EP2241565A1, “Aurora kinase inhibitors compounds” (Universität Leipzig, priority 2009, dated 2010)
“Also recorded” adds a separate entry of the source.

What was measured:
[1] = system: H2B-GFP/mRFP-αTubulin HeLa cells; assay: Time-lapse video microscopy of live cells; format: cell-based, human; details: 40 µM
Protocol: Upon treatment, living cells were added to a humidified chamber at 37 °C with 5% CO2 attached to a Carl Zeiss microscope (SN:3834000366) equipped with a Hamamatsu EM-CCD digital camera, controlled by AxioVision 4.6 software. Cells were imaged every 3 or 4.5 min (depending on the number of fields filmed) for over 16 h-24 h. Images were taken with the AxioCam MRm 426205 objective and processed using AxioVision software.
The increase in the proportion of cells with more than 2n DNA content could be due to several causes: several cycles of DNA replication or cytokinesis errors as shown for cells treated with other Aurora inhibitors. To determine the primary cause for the phenotype produced by (C) and examine whether (A) may interfere with mitosis, we examined live cells by time-lapse video microscopy. To visualize DNA and microtubules we used a HeLa stable cell line expressing H2B-GFP and mRFP-αTubulin. […] The resulting time-lapse images were used to determine the following parameters: (1) the percentage of cell death among non dividing cells (Figure 4A), (2) the percentage of cells entering mitosis (Figure 4B), (3) the outcome of mitosis: normal division (cell division), return to interphase without chromatin segregation and without dividing (no division), cytokinesis failure (division errors), cell death without resolving mitosis (cell death) (Figure 4C), and (4) the length of time spent in mitosis (TIM), defined as the interval between DNA condensation and anaphase resolution (Figure 4D).

KDR (VEGFR2) = target: T1, KDR (VEGFR2) (Homo sapiens, UniProt P35968); assay: RTK-Assay (ELISA, chemiluminescence); format: biochemical; details: read-out: IC50 KDR (VEGFR 2)
T1 construct: GST (N); purchased Biomol
Protocol: To determine the IC50 of receptor-tyrosine-kinase an assay based on the ELISA-principle using kinases from Biomol (N-terminally fused to GST), POD-coupled antibody from Calbiochem (PY20) and BM chemiluminescence ELISA substrate from Roche was followed.
In short, a white 96 wells microplate was incubated overnight with 100 µl/well of the substrate solution (poly-Glu-Tyr diluted with PBS to 100 µg/ml) at 4 °C. The solution was removed and the plate was washed twice for 2 min with PBS-T. Afterwards the kinase solution (50 µl/well)( KDR (VEGFR2), 5 ng; Flt4 (VEGFR3), 20 ng; EGFR, 5 ng; IGFR, 15 ng; FGFR, 10 ng and Tie2, 20 ng) and the inhibitor solution (25 µl/well) were added to each well. To perform positive and negative control, 5% aqueous DMSO (25 µl/well) were used instead of inhibitor solution. Addition of ATP solution (25 µl/well) started the reaction, whereas 40 mM MnCl2 solution (25 µl/well) was added to the negative control instead of ATP. After incubation under mild shaking conditions for 30 min at rt the plate was washed with PBS-T (3 x 2 min) and subsequently incubated with antibody solution (anti-Phosphotyrosine-antibody (POD-coupled) diluted 1:10.000 in PBS-T + 0,2% (m/v) BSA)(100 µl/well) for 1 h again while shaking. In the end the plate was washed with PBS-T (3x5 min) and provided with the chemiluminescence substrate (50 µl/well). After 3 min the occurring luminescence was measured using a luminometer. […] For determination of IC50 values, the relative luminescence units per second (RLU/s) were blotted against the inhibitor concentrations. In doing so each concentration measurement was done triplicate and at least 5 different inhibitor concentrations were used to determine IC50 value.
This assay is based on the ELISA-principle using kinases from Biomol (N-terminally fused to GST), POD-coupled antibody from Calbiochem (PY20) and BM chemiluminescence ELISA substrate from Roche. […]
For determination of IC50 values, the relative luminescence units per second (RLU/s) were blotted against the inhibitor concentrations. […]

hTERT-RPE1 cells = assay: Cilia disassembly assay; format: cell-based; details: pretreatment 40 µM, serum stimulation after 48 h starvation
Protocol: Cilia assembly and disassembly assays were performed as described in Pugacheva et al., Cell 2007, 129, 1351-1363. […] For analysis of cilia disassembly, cilia were assembled by 48 h starvation in Opti-MEM, and disassembled by incubation in DMEM-10% serum. Cells were fixed after 2 and 4 h. […] To visualize the centrosomes and the cilia, fixed cells were immunostained with anti-γ-tubulin (Sigma GTU88) and anti-acetylated-tubulin (Sigma), and DNA was stained with Hoechst.

HeLa cells = assay: Fixed cell analysis of mitotic phenotypes (fluorescence / immunofluorescence); format: cell-based, human; details: 40 µM, 24 h
Protocol: For fixed cell analysis, HeLa or H2B-GFP/mRFP-αTubulin HeLa cells were grown on glass coverslips and treated as described above. Cells were fixed in ice cold methanol and mounted in Mowiol. Alternatively, non fluorescent HeLa were treated and subjected to immunofluorescence with anti-tubulin antibodies (Sigma, DM1A) and Hoechst to stain the DNA. Cells were observed on a Leica DM16000B microscope with the HCX PL APO CS 63x 1.4 objective. Images were taken with a Leica DFC 350FX camera, controlled by Leica Application Suit (LAS-AF 6000) software and processed with Adobe Photoshop.
To get a better idea about the defects causing cell division failure in cells treated with (C), we examined fixed cells to better visualize the chromosomes and the microtubules. […] In parallel, standard HeLa cells were treated in the same way. The cells were fixed and processed for immunofluorescence with anti-tubulin antibodies to visualize the microtubules and Hoechst to stain the DNA.

T1 sequence (P35968 20-1356, species assumed): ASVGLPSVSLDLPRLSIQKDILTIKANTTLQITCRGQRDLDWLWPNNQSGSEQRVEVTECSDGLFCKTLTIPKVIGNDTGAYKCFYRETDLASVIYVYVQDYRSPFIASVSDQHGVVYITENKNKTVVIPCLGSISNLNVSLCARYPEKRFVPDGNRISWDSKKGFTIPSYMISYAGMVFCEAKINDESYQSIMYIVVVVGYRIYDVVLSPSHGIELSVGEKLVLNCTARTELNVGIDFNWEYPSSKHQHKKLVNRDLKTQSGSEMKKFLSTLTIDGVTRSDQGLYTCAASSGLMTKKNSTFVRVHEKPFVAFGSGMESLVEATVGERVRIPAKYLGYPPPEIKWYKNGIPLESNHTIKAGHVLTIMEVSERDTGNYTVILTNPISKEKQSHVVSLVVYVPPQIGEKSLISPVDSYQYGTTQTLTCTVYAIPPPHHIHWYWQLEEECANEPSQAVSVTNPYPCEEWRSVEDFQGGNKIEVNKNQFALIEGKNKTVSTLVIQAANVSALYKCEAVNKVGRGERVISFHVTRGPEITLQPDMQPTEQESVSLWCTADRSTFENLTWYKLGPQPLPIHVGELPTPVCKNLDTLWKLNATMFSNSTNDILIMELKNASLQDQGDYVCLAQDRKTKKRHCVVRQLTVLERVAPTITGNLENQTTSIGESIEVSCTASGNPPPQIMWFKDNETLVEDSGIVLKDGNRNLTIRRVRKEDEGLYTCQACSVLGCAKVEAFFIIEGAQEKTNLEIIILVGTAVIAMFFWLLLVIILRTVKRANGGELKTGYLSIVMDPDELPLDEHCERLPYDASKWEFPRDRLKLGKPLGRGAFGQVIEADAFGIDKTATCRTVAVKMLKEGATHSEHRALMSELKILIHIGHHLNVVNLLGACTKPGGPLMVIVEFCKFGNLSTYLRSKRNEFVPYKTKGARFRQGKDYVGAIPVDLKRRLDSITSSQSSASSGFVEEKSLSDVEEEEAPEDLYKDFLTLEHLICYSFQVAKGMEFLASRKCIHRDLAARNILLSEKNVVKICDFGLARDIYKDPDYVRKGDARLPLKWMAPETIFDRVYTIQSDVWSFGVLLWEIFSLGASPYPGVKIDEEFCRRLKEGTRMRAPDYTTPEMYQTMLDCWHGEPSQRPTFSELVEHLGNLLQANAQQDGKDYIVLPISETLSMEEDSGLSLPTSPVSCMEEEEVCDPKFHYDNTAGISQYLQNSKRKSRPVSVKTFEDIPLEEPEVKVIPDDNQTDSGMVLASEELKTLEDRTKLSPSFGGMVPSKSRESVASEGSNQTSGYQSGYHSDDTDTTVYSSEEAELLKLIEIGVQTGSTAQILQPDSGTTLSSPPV

## CC(C)Nc1nc(-c2ccco2)nc2ccc(/C=C/C(C)(C)O)cc12 [Compound (A), (E)-4-(2-(Furan-2-yl)-4-(isopropylamino)quinazolin-6-yl)-2-methylbut-3-en-2-ol]
[1]
  cell death among non dividing cells / cell viability: increased cell death rate; also recorded: massive cell death; also recorded: strong effect on cell viability independent of mitosis
  outcome of mitosis: completed it successfully

## CC(C)Nc1nc(-c2ccco2)nc2ccc(C#CCO)cc12 [Compound (C), 3-(2-(Furan-2-yl)-4-(isoiproipylamino)quinazolin-6-yl)prop-2-yn-l-ol]
KDR (VEGFR2)
  IC50: > 100 µM
hTERT-RPE1 cells
  cilia disassembly: strongly inhibited; also recorded: impaired
HeLa cells
  mitotic phenotype of fixed cells: increased formation of multipolar spindles and other abnormal mitotic structures; also recorded: large proportion of abnormal mitotic spindles
[1]
  outcome of mitosis: unable to align their chromosomes and died without entering a new interphase; also recorded: died without returning to interphase or right after an asymmetric segregation
  time spent in mitosis (TIM), median: 375 min
[1]; 16 h-24 h
  number of cells entering mitosis: reduced
[1]; time-lapse video microscopy
  cells entered mitosis: 28.8%
